# Measurements published in patent US11098032B2, “Pyran dervatives as CYP11A1 (cytochrome P450 monooxygenase 11A1) inhibitors” (ORION CORPORATION, priority 2016, dated 2021).
# Molecular target: T1, CYP11A1 (Homo sapiens, UniProt P05108)
# T1 construct: human H295R adrenocortical carcinoma cell line was used as source of enzyme; endogenous in cells; host or cells: H295R human adrenocortical carcinoma cells
# T1 sequence (P05108 40-521): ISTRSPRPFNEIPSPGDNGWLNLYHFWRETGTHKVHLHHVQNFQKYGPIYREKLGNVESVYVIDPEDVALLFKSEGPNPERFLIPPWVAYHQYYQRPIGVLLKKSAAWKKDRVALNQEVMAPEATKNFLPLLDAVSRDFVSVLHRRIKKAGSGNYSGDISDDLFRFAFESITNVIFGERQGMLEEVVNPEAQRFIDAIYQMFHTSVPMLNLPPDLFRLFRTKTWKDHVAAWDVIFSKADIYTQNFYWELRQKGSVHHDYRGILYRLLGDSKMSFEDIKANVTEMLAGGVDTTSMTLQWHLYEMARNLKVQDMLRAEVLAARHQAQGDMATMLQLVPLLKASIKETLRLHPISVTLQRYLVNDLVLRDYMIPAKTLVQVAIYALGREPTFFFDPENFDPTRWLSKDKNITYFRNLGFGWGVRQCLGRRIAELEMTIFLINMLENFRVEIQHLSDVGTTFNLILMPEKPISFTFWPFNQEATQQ
# Assay: CYP11A1 inhibition: modified isocaproic acid release assay (IARA) in H295R cells
# Type: cell-based
# Conditions: human H295R adrenocortical carcinoma cells treated three days, 3 nM [24,25-3H]-labelled cholesterol, 1% DMSO, 10 concentrations in duplicates; read-out: IC50 of the test compounds on CYP11A1 inhibition
# In short: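 H295R adrenocortical cells treated three days with test compounds at 10 concentrations in duplicate plus 3 nM [24,25-3H]-cholesterol, 1% DMSO final. Released radiolabelled isocaproic acid measured by scintillation counting after dextran-coated charcoal extraction; IC50 determined.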
smiles,measurement,value
"O=c1cc(CN2Cc3ccccc3C2)occ1OCC1CCSCC1 [Compound 196, 2-(Isoindolin-2-ylmethyl)-5-((tetrahydro-2H-thiopyran-4-yl)methoxy)-4H-pyran-4-one]",IC50,< 150 nM
"CC(C)(C)OC(=O)N1CCC(CCOc2coc(CN3Cc4ccccc4C3)cc2=O)CC1 [Compound 197, tert-Butyl 4-(2-((6-(isoindolin-2-ylmethyl)-4-oxo-4H-pyran-3-yl)oxy)ethyl)-piperidine-1-carboxylate]",IC50,301 to 2000 nM
"CS(=O)(=O)N1CCC(CCOc2coc(CN3Cc4ccccc4C3)cc2=O)CC1 [Compound 198, 2-(Isoindolin-2-ylmethyl)-5-(2-(1-(methylsulfonyl)piperidin-4-yl)ethoxy)-4H-pyran-4-one]",IC50,150 to 300 nM
"CC(C)(C)OC(=O)N1CC[C@@H](COc2coc(CN3Cc4ccccc4C3)cc2=O)C1 [Compound 199, (R)-tert-Butyl 3-(((6-(isoindolin-2-ylmethyl)-4-oxo-4H-pyran-3-yl)oxy)methyl)-pyrrolidine-1-carboxylate]",IC50,150 to 300 nM
"CC(C)(C)OC(=O)N1CC[C@H](COc2coc(CN3Cc4ccccc4C3)cc2=O)C1 [Compound 200, (S)-tert-Butyl 3-(((6-(isoindolin-2-ylmethyl)-4-oxo-4H-pyran-3-yl)oxy)methyl)-pyrrolidine-1-carboxylate]",IC50,150 to 300 nM
"CC(C)(C)OC(=O)N1CCC[C@H](COc2coc(CN3Cc4ccccc4C3)cc2=O)C1 [Compound 201, (S)-tert-Butyl 3-(((6-(isoindolin-2-ylmethyl)-4-oxo-4H-pyran-3-yl)oxy)methyl)-piperidine-1-carboxylate]",IC50,301 to 2000 nM
"CC(C)(C)OC(=O)N1CCC[C@@H](COc2coc(CN3Cc4ccccc4C3)cc2=O)C1 [Compound 202, (R)-tert-Butyl 3-(((6-(isoindolin-2-ylmethyl)-4-oxo-4H-pyran-3-yl)oxy)methyl)-piperidine-1-carboxylate]",IC50,301 to 2000 nM
"CC(C)(C)OC(=O)N1CCC(Oc2coc(CN3Cc4ccccc4C3)cc2=O)CC1 [Compound 203, tert-Butyl 4-((6-(isoindolin-2-ylmethyl)-4-oxo-4H-pyran-3-yl)oxy)piperidine-1-carboxylate]",IC50,301 to 2000 nM
"CS(=O)(=O)N1CCC(COc2coc(CN3Cc4ccc(OC(F)(F)F)cc4C3)cc2=O)CC1 [Compound 205, 5-((1-(Methylsulfonyl)piperidin-4-yl)methoxy)-2-((5-(trifluoromethoxy)-isoindolin-2-yl)methyl)-4H-pyran-4-one]",IC50,< 150 nM
"CC(=O)N1CCC(CCOc2coc(CN3Cc4ccccc4C3)cc2=O)CC1 [Compound 206, 5-(2-(1-Acetylpiperidin-4-yl)ethoxy)-2-(isoindolin-2-ylmethyl)-4H-pyran-4-one]",IC50,301 to 2000 nM
"CS(=O)(=O)N1CCC(COc2coc(CN3Cc4ccc([N+](=O)[O-])cc4C3)cc2=O)CC1 [Compound 207, 5-((1-(Methylsulfonyl)piperidin-4-yl)methoxy)-2-((5-nitroisoindolin-2-yl)methyl)-4H-pyran-4-one]",IC50,301 to 2000 nM
"CSc1ccc2c(c1)CN(Cc1cc(=O)c(OCC3CCN(S(C)(=O)=O)CC3)co1)C2 [Compound 208, 5-((1-(Methylsulfonyl)piperidin-4-yl)methoxy)-2-((5-(methylthio)isoindolin-2-yl)methyl)-4H-pyran-4-one]",IC50,150 to 300 nM
"CS(=O)(=O)N1CCC(COc2coc(CN3Cc4cc5c(cc4C3)OCO5)cc2=O)CC1 [Compound 209, 2-((5,7-Dihydro-6H-[1,3]dioxolo[4,5-f]isoindol-6-yl)methyl)-5-((1-(methyl-sulfonyl)piperidin-4-yl)methoxy)-4H-pyran-4-one]",IC50,150 to 300 nM
"CS(=O)(=O)N1CCC(COc2coc(CN3Cc4cc(F)c(F)cc4C3)cc2=O)CC1 [Compound 210, 2-((5,6-Difluoroisoindolin-2-yl)methyl)-5-((1-(methylsulfonyl)piperidin-4-yl)methoxy)-4H-pyran-4-one]",IC50,150 to 300 nM
"Cc1ccc2c(c1)CN(Cc1cc(=O)c(OCC3CCN(S(C)(=O)=O)CC3)co1)C2 [Compound 211, 2-((5-Methylisoindolin-2-yl)methyl)-5-((1-(methylsulfonyl)piperidin-4-yl)-methoxy)-4H-pyran-4-one]",IC50,< 150 nM
"CC1(C)c2ccccc2CN1Cc1cc(=O)c(OCC2CCN(S(C)(=O)=O)CC2)co1 [Compound 212, 2-((1,1-Dimethylisoindolin-2-yl)methyl)-5-((1-(methylsulfonyl)piperidin-4-yl)-methoxy)-4H-pyran-4-one]",IC50,301 to 2000 nM
"CS(=O)(=O)N1CCC(CCCOc2coc(CN3Cc4ccccc4C3)cc2=O)CC1 [Compound 213, 2-(Isoindolin-2-ylmethyl)-5-(3-(1-(methylsulfonyl)piperidin-4-yl)propoxy)-4H-pyran-4-one]",IC50,< 150 nM
"O=c1cc(CN2Cc3ccccc3C2)occ1OCCCc1ccncc1 [Compound 214, 2-(Isoindolin-2-ylmethyl)-5-(3-(pyridin-4-yl)propoxy)-4H-pyran-4-one]",IC50,150 to 300 nM
"O=C(N1CCCC1)N1CCC(COc2coc(CN3Cc4ccccc4C3)cc2=O)CC1 [Compound 215, 2-(Isoindolin-2-ylmethyl)-5-((1-(pyrrolidine-1-carbonyl)piperidin-4-yl)methoxy)-4H-pyran-4-one]",IC50,< 150 nM
"O=c1cc(CN2Cc3ccccc3C2)occ1OC[C@H]1CC[C@H](N2CCCS2(=O)=O)CC1 [Compound 216, 5-(((1r,4r)-4-(1,1-Dioxidoisothiazolidin-2-yl)cyclohexyl)methoxy)-2-(isoindolin-2-ylmethyl)-4H-pyran-4-one]",IC50,< 150 nM
"CN(C)C(=O)C1CCC(COc2coc(CN3Cc4ccccc4C3)cc2=O)CC1 (stereo not drawn) [Compound 217, 4-(((6-(Isoindolin-2-ylmethyl)-4-oxo-4H-pyran-3-yl)oxy)methyl)-N,N-dimethyl-cyclohexane-1-carboxamide]",IC50,< 150 nM
"CN(C1CCC(COc2coc(CN3Cc4ccccc4C3)cc2=O)CC1)S(C)(=O)=O (stereo not drawn) [Compound 218, N-(4-(((6-(Isoindolin-2-ylmethyl)-4-oxo-4H-pyran-3-yl)oxy)methyl)cyclohexyl)-N-methylmethanesulfonamide]",IC50,150 to 300 nM
"CS(=O)(=O)N(C1CCC(COc2coc(CN3Cc4ccccc4C3)cc2=O)CC1)C1CC1 (stereo not drawn) [Compound 219, N-Cyclopropyl-N-(4-(((6-(isoindolin-2-ylmethyl)-4-oxo-4H-pyran-3-yl)oxy)-methyl)cyclohexyl)methanesulfonamide]",IC50,< 150 nM
"CS(=O)(=O)C1CCC(COc2coc(CN3Cc4ccccc4C3)cc2=O)CC1 (stereo not drawn) [Compound 220, 2-(Isoindolin-2-ylmethyl)-5-((4-(methylsulfonyl)cyclohexyl)methoxy)-4H-pyran-4-one]",IC50,150 to 300 nM
"CCCC(=O)N1CCC(COc2coc(CN3Cc4ccccc4C3)cc2=O)CC1 [Compound 221, 5-((1-Butyrylpiperidin-4-yl)methoxy)-2-(isoindolin-2-ylmethyl)-4H-pyran-4-one]",IC50,< 150 nM
"CC(F)(F)C(=O)N1CCC(COc2coc(CN3Cc4ccccc4C3)cc2=O)CC1 [Compound 222, 5-((1-(2,2-Difluoropropanoyl)piperidin-4-yl)methoxy)-2-(isoindolin-2-ylmethyl)-4H-pyran-4-one]",IC50,< 150 nM
"CC(F)(F)C(=O)N1CCC(COc2coc(CN3Cc4ccc(F)cc4C3)cc2=O)CC1 [Compound 223, 5-((1-(2,2-Difluoropropanoyl)piperidin-4-yl)methoxy)-2-((5-fluoroisoindolin-2-yl)methyl)-4H-pyran-4-one]",IC50,150 to 300 nM
"CCC(=O)N1CCC(COc2coc(CN3Cc4ccc(F)cc4C3)cc2=O)CC1 [Compound 224, 2-((5-Fluoroisoindolin-2-yl)methyl)-5-((1-propionylpiperidin-4-yl)methoxy)-4H-pyran-4-one]",IC50,< 150 nM
"CN(C)S(=O)(=O)N1CCC(COc2coc(CN3Cc4ccccc4C3)cc2=O)CC1 [Compound 225, 4-(((6-(Isoindolin-2-ylmethyl)-4-oxo-4H-pyran-3-yl)oxy)methyl)-N,N-dimethyl-piperidine-1-sulfonamide]",IC50,< 150 nM
"O=C(C1CC1)N1CCC(COc2coc(CN3Cc4ccccc4C3)cc2=O)CC1 [Compound 226, 5-((1-(Cyclopropanecarbonyl)piperidin-4-yl)methoxy)-2-(isoindolin-2-ylmethyl)-4H-pyran-4-one]",IC50,< 150 nM
"CNC(=O)C1CCC(COc2coc(CN3Cc4ccccc4C3)cc2=O)CC1 (stereo not drawn) [Compound 227, 4-(((6-(Isoindolin-2-ylmethyl)-4-oxo-4H-pyran-3-yl)oxy)methyl)-N-methylcyclo-hexanecarboxamide]",IC50,150 to 300 nM
"CNC(=O)N1CCC(COc2coc(CN3Cc4ccccc4C3)cc2=O)CC1 [Compound 228, 4-(((6-(Isoindolin-2-ylmethyl)-4-oxo-4H-pyran-3-yl)oxy)methyl)-N-methyl-piperidine-1-carboxamide]",IC50,150 to 300 nM
"CC(C)NC(=O)N1CCC(COc2coc(CN3Cc4ccccc4C3)cc2=O)CC1 [Compound 229, 4-(((6-(Isoindolin-2-ylmethyl)-4-oxo-4H-pyran-3-yl)oxy)methyl)-N-isopropyl-piperidine-1-carboxamide]",IC50,< 150 nM
